Source: patent US20140228287A1, “1-[(3-CYANO-PYRIDIN-2-YL)METHYL]-3-METHYL-7-(2-BUTYN-1-YL)-8-[3-(R)-AMINO-PIPERIDIN-1-YL]-AXANTHINE FOR THE TREATMENT OF A METABOLIC DISORDER OF A PREDOMINANTLY CARNIVOROUS NON-HUMAN ANIMAL” (BOEHRINGER INGELHEIM VETMEDICA GMBH, priority 2010, published 2014)
Structures can show the parent of a compound that is named as a salt. Where two headings read alike, the source gives them in different places.

Columns and labels:
[1] = system: normoglycaemic C57B1/6J mice; assay: Oral glucose tolerance test (acute and delayed) in normoglycaemic mice; format: in vivo, mouse; conditions: for ED50: Mus musculus, po, read-out: ED50 for lowering the glucose AUC
Description: The effect of 1-[(3-cyano-pyridin-2-yl)methyl]-3-methyl-7-(2-butyn-1-yl)-8-[3-(R)-amino-piperidin-1-yl]-xanthine on glucose tolerance in normoglycaemic C57B1/6J mice was assessed according to the following protocol of an oral glucose tolerance test (OGTT).
Male C57B1/6J mice (C57BL/6J@Rj) were obtained from Janvier (France). Animals were fed ad libitum with a standard pelleted diet (Diet No. 3438 [containing 19% protein, 4.5% fat], Provimi Kliba, Switzerland) and had free access to water. Animals were individually housed with a 12 h/12 h light/dark cycle (lights out between 6 p.m. and 6 a.m.). The mice were used for the experiments at 9 weeks of age.
For the determination of the acute oral glucose tolerance test, a basal blood sample (pre-dose) was obtained in the morning from overnight fasted C57B1/6J mice (n=7 per group) by cutting the tip of the tail without anaesthesia. Subsequently, the groups received a single oral administration of either vehicle or 1-[(3-cyano-pyridin-2-yl)methyl]-3-methyl-7-(2-butyn-1-yl)-8-[3-(R)-amino-piperidin-1-yl]-xanthine monohydrochloride at doses between 0.1 and 10 mg/kg bw, followed 45 min later by an oral administration of a glucose solution (2 g/kg bw, application volume 10 ml/kg bw). Additional blood samples were taken from the tip of the tail 30 min, 60 min, 90 min, 120 min, and 180 min after the glucose load, and blood glucose was measured. A final blood sample was drawn from the retrobulbal venous plexus under isoflurane anaesthesia 30 minutes after the last bleeding from the tail. EDTA plasma was prepared from this blood sample and frozen for determination of DPP-IV activity.
For the determination of the delayed oral glucose tolerance test, C57B1/6J mice (n=5 per group) were orally administered with either vehicle or 1-[(3-cyano-pyridin-2-yl)methyl]-3-methyl-7-(2-butyn-1-yl)-8-[3-(R)-amino-piperidin-1-yl]-xanthine monohydrochloride at doses between 0.1 and 10 mg/kg bw in the afternoon before the oral glucose tolerance test. […] Additional blood samples were taken from the tip of the tail 30 min, 60 min, 90 min, 120 min, and 180 min after the glucose load, and blood glucose was measured. […]
The two-sided unpaired Student t-test was used for statistical comparison of the control group and the active groups with the 5% level as the limit of statistical significance (*, P <0.05; **, P<0.01; ***, P<0.001). […] Changes from baseline (pre-dose value) within each group were analyzed by a paired Student t-test.
The area under the curve (AUC) for the time course of blood glucose concentrations during an OGTT was calculated by the trapezoidal rule after correction for the baseline values.
ED50 values were calculated by nonlinear regression analysis with a Hill coefficient of 1. […]

DPP IV = target: T1, DPP IV (Felis catus, UniProt Q9N2I7); assay: Exploratory single dose PK/PD (1.0/5.0/10.0 mg/kg) in cats: DPP IV activity; format: in vivo, cat; conditions: for response vs control in vivo at 1 mg/kg: 1 mg/kg single oral; for response vs control in vivo at 1 mg/kg / response vs control in vivo at 5 mg/kg / response vs control in vivo at 10 mg/kg: read-out: DPP IV activity in cat plasma; for response vs control in vivo at 5 mg/kg: 5 mg/kg single oral; for response vs control in vivo at 10 mg/kg: 10 mg/kg single oral
T1 construct: Blood samples for the determination of this compound and DPP IV activity were collected; from tissue; host or cells: plasma of domestic short hair / purpose-bred cats dosed orally
Description: The investigation of the PK/PD values was conducted in the same way as in Example 7, with the variations described below.
The aim of this study was to investigate the PK/PD behaviour of 1-[(3-cyano-pyridin-2-yl)methyl]-3-methyl-7-(2-butyn-1-yl)-8-[3-(R)-amino-piperidin-1-yl]-xanthine in the cat following a single oral administration of 0, 1, 5 and 10 mg/kg body weight (dosages were based on the free base: 1 mg 1-[(3-cyano-pyridin-2-yl)methyl]-3-methyl-7-(2-butyn-1-yl)-8-[3-(R)-amino-piperidin-1-yl]-xanthine monohydrochloride corresponds to 0.923 mg 1-[(3-cyano-pyridin-2-yl)methyl]-3-methyl-7-(2-butyn-1-yl)-8-[3-(R)-amino-piperidin-1-yl]-xanthine free base).
Twelve clinically healthy male adult domestic short hair cats with a body weight range of 3.5-4.7 kg were used in this study. All animals were treated orally once via a stomach tube. Blood samples for pharmacokinetic and pharmacodynamic (DPP IV activity) investigations were drawn at 0 h (i.e. prior to treatment), 30 min as well as 1, 2, 4, 8, 8.5, 9, 12, 24, 36, 48, 72, 84 and 96 h after treatment. Blood samples for pharmacodynamic (glucagon-like peptide 1 concentrations) investigations were drawn at −16 (i.e. prior to feeding), −15.5, −15 h as well as at 8 h (i.e. prior to feeding), 8.5 and 9 h after treatment.

T1 sequence (Q9N2I7 38-765 limits assumed): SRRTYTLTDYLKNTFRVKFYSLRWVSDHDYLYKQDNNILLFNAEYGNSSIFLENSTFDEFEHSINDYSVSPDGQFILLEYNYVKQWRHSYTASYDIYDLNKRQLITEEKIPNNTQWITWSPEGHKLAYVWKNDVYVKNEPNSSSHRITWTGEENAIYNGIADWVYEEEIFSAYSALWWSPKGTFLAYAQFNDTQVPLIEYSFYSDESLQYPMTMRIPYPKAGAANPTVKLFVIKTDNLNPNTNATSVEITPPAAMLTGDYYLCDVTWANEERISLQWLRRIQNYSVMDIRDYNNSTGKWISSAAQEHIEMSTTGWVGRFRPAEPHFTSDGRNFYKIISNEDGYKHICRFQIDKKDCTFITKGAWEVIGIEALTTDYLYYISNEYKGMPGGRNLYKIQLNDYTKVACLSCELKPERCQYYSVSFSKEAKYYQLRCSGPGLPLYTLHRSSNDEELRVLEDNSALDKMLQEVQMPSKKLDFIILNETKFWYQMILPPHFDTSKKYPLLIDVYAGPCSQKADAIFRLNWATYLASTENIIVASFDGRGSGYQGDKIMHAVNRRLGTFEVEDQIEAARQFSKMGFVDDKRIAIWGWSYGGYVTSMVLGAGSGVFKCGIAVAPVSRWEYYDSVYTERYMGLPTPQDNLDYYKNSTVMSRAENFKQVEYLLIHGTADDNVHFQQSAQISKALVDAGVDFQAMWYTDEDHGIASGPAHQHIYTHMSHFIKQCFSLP

`CC#CCn1c(N2CCC[C@@H](N)C2)nc2c1c(=O)n(Cc1ncccc1C#N)c(=O)n2C` [1-[(3-cyano-pyridin-2-yl)methyl]-3-methyl-7-(2-butyn-1-yl)-8-[3-(R)-amino-piperidin-1-yl]-xanthine monohydrochloride] was tested. Which “reduction of AUC for glucose excursion in OGTT” value ([1]; 1 mg/kg 16 hours before OGTT (delayed setting)) did it give?
The value was 29%.

What about the ED50 ([1]; acute setting) of the same compound?
The ED50 was 0.2 mg/kg.

And the ED50 ([1]; delayed setting)?
Its ED50 is 0.3 mg/kg.

And the “suppression of AUC for glucose excursion in OGTT” value ([1]; acute dosing of 1 mg/kg)?
Its value is 38%.

What about the “time up to which DPP IV values remained ≦20%” value (DPP IV; 1.0 mg/kg single oral) of the same compound?
Its value is 12 h.

What about the response vs control in vivo at 1 mg/kg (DPP IV; 0.5 h) of the same compound?
Its response vs control in vivo at 1 mg/kg is 8%.

And the response vs control in vivo at 1 mg/kg (DPP IV; 1 h)?
Its response vs control in vivo at 1 mg/kg is 7%.

What about the response vs control in vivo at 1 mg/kg (DPP IV; 2 h) of the same compound?
The response vs control in vivo at 1 mg/kg was 7%.

And the response vs control in vivo at 1 mg/kg (DPP IV; 4 h)?
Its response vs control in vivo at 1 mg/kg is 7.3%.

And the response vs control in vivo at 1 mg/kg (DPP IV; 8 h)?
The response vs control in vivo at 1 mg/kg was 9.3%.

What about the response vs control in vivo at 1 mg/kg (DPP IV; 8.5 h) of the same compound?
The response vs control in vivo at 1 mg/kg was 9.7%.

What about the response vs control in vivo at 1 mg/kg (DPP IV; 9 h) of the same compound?
The response vs control in vivo at 1 mg/kg was 9.7%.

And the response vs control in vivo at 1 mg/kg (DPP IV; 12 h)?
The response vs control in vivo at 1 mg/kg was 12.3%.

And the response vs control in vivo at 1 mg/kg (DPP IV; 24 h)?
Its response vs control in vivo at 1 mg/kg is 22.3%.

What about the response vs control in vivo at 1 mg/kg (DPP IV; 36 h) of the same compound?
Its response vs control in vivo at 1 mg/kg is 43%.

And the response vs control in vivo at 1 mg/kg (DPP IV; 48 h)?
Its response vs control in vivo at 1 mg/kg is 59%.

What about the response vs control in vivo at 1 mg/kg (DPP IV; 72 h) of the same compound?
The response vs control in vivo at 1 mg/kg was 74.7%.

And the response vs control in vivo at 1 mg/kg (DPP IV; 84 h)?
The response vs control in vivo at 1 mg/kg was 84.3%.

What about the response vs control in vivo at 1 mg/kg (DPP IV; 96 h) of the same compound?
Its response vs control in vivo at 1 mg/kg is 81.7%.

And the “time up to which DPP IV values remained ≦20%” value (DPP IV; 5.0 mg/kg single oral)?
The value was 24 h.

What about the response vs control in vivo at 5 mg/kg (DPP IV; 0.5 h) of the same compound?
The response vs control in vivo at 5 mg/kg was 7.7%.

What about the response vs control in vivo at 5 mg/kg (DPP IV; 1 h) of the same compound?
The response vs control in vivo at 5 mg/kg was 7%.

And the response vs control in vivo at 5 mg/kg (DPP IV; 2 h)?
Its response vs control in vivo at 5 mg/kg is 7%.

And the response vs control in vivo at 5 mg/kg (DPP IV; 4 h)?
The response vs control in vivo at 5 mg/kg was 7.7%.

What about the response vs control in vivo at 5 mg/kg (DPP IV; 8 h) of the same compound?
The response vs control in vivo at 5 mg/kg was 8.3%.

What about the response vs control in vivo at 5 mg/kg (DPP IV; 8.5 h) of the same compound?
The response vs control in vivo at 5 mg/kg was 8.7%.

And the response vs control in vivo at 5 mg/kg (DPP IV; 9 h)?
Its response vs control in vivo at 5 mg/kg is 9%.

What about the response vs control in vivo at 5 mg/kg (DPP IV; 12 h) of the same compound?
Its response vs control in vivo at 5 mg/kg is 9.3%.

What about the response vs control in vivo at 5 mg/kg (DPP IV; 24 h) of the same compound?
Its response vs control in vivo at 5 mg/kg is 14.7%.

What about the response vs control in vivo at 5 mg/kg (DPP IV; 36 h) of the same compound?
The response vs control in vivo at 5 mg/kg was 25.7%.

What about the response vs control in vivo at 5 mg/kg (DPP IV; 48 h) of the same compound?
Its response vs control in vivo at 5 mg/kg is 42.7%.

And the response vs control in vivo at 5 mg/kg (DPP IV; 72 h)?
Its response vs control in vivo at 5 mg/kg is 72.3%.

And the response vs control in vivo at 5 mg/kg (DPP IV; 84 h)?
Its response vs control in vivo at 5 mg/kg is 90%.

And the response vs control in vivo at 5 mg/kg (DPP IV; 96 h)?
The response vs control in vivo at 5 mg/kg was 87.7%.

What about the “time up to which DPP IV values remained ≦20%” value (DPP IV; 10.0 mg/kg single oral) of the same compound?
Its value is 48 h.

What about the response vs control in vivo at 10 mg/kg (DPP IV; 0.5 h) of the same compound?
Its response vs control in vivo at 10 mg/kg is 8%.

And the response vs control in vivo at 10 mg/kg (DPP IV; 1 h)?
The response vs control in vivo at 10 mg/kg was 7.3%.

And the response vs control in vivo at 10 mg/kg (DPP IV; 2 h)?
The response vs control in vivo at 10 mg/kg was 7.3%.

And the response vs control in vivo at 10 mg/kg (DPP IV; 4 h)?
The response vs control in vivo at 10 mg/kg was 9%.

And the response vs control in vivo at 10 mg/kg (DPP IV; 8 h)?
Its response vs control in vivo at 10 mg/kg is 9%.

And the response vs control in vivo at 10 mg/kg (DPP IV; 8.5 h)?
Its response vs control in vivo at 10 mg/kg is 9.7%.

And the response vs control in vivo at 10 mg/kg (DPP IV; 9 h)?
The response vs control in vivo at 10 mg/kg was 9.3%.

And the response vs control in vivo at 10 mg/kg (DPP IV; 12 h)?
The response vs control in vivo at 10 mg/kg was 9.7%.

And the response vs control in vivo at 10 mg/kg (DPP IV; 24 h)?
The response vs control in vivo at 10 mg/kg was 12.3%.

And the response vs control in vivo at 10 mg/kg (DPP IV; 36 h)?
The response vs control in vivo at 10 mg/kg was 16.3%.

What about the response vs control in vivo at 10 mg/kg (DPP IV; 48 h) of the same compound?
Its response vs control in vivo at 10 mg/kg is 20%.

What about the response vs control in vivo at 10 mg/kg (DPP IV; 72 h) of the same compound?
Its response vs control in vivo at 10 mg/kg is 37%.

And the response vs control in vivo at 10 mg/kg (DPP IV; 84 h)?
The response vs control in vivo at 10 mg/kg was 58.3%.

And the response vs control in vivo at 10 mg/kg (DPP IV; 96 h)?
Its response vs control in vivo at 10 mg/kg is 67.3%.

What about the “minimum mean DPP IV values” (DPP IV; all three groups (1.0, 5.0, 10.0 mg/kg single oral)) of the same compound?
The value was 7%.

What about the “plasma concentration at which maximum DPP-IV inhibition was reached” value (DPP IV; cat, PK-PD correlation) of the same compound?
Its value is 15 to 30 nmol/L.
